Key:
[1] = biological target: T1, Sigma intracellular receptor 2 (Rattus norvegicus, UniProt Q5U3Y7); assay: Displacement of [3H]-di-o-tolylguanidine from sigma2 receptor in rat liver membrane incubated for 120 mins measured for 5 mins by scintillation counting method; assay type: cell membranes
T1 sequence (Q5U3Y7 whole entry): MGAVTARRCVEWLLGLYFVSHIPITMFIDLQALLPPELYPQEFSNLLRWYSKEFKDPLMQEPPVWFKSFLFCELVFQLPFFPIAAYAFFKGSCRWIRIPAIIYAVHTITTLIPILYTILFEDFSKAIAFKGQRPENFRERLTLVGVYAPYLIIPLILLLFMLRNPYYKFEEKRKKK

[2] = biological target: Sigma non-opioid intracellular receptor 1 (Cavia porcellus, UniProt Q60492); assay: Displacement of [3H]-(+)-pentazocine from sigma1 receptor in guinea pig brain cortex membrane incubated for 120 mins measured for 5 mins by scintillation counting method; assay type: cell membranes
Sigma non-opioid intracellular receptor 1, sequence (Q60492 whole entry): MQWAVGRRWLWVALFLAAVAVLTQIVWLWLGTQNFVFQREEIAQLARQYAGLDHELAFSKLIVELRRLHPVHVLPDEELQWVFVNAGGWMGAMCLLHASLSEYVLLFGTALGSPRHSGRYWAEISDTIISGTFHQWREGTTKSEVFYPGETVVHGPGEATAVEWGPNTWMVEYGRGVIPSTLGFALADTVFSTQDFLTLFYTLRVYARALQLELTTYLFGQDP

[3] = Displacement of [3H]-(+)-MK-801 from NMDA PCP binding site in pig brain cortex membrane incubated for 120 mins measured for 5 mins by scintillation counting method; assay type: cell membranes, Sus scrofa

SMILES	Ki [1]	Ki [2]	Ki [3]
c1ccc(CNCCC2CC3OC(Cc4ccccc43)O2)cc1 (racemic; 21b)	153 nM	5.9 nM	–
NCCC1CC2OC(Cc3ccccc32)O1 (mixture of isomers)	> 1000 nM	> 1000 nM	> 1000 nM
c1ccc(CN(CCC2CC3OC(Cc4ccccc43)O2)Cc2ccccc2)cc1 (racemic; 22a)	> 1000 nM	1400 nM	> 1000 nM
CN(C)CCC1CC2OC(Cc3ccccc32)O1 (racemic)	> 1000 nM	> 1000 nM	> 1000 nM
c1ccc(CN(CCC2CC3OC(Cc4ccccc43)O2)Cc2ccccc2)cc1 (racemic; 22b)	> 1000 nM	782 nM	–
NCCC1CC2OC(Cc3ccccc32)O1 (racemic)	> 1000 nM	> 1000 nM	–
c1ccc(CNCCC2CC3OC(Cc4ccccc43)O2)cc1 (racemic; 21a)	> 1000 nM	30 nM	> 1000 nM

Reference: ChEMBL document CHEMBL4038283, “Synthesis of conformationally restricted 1,3-dioxanes to analyze the bioactive conformation of 1,3-dioxane-based σ1 and PCP receptor antagonists” (Bioorg Med Chem, 2017)
